Converted amounts (≈) assume the structure as drawn. Like-named read-outs stand apart in the source and are kept apart here. Marks after values point to notes of the source that are not given here.
Legend:
[1] = test system: Candida krusei; assay: Antifungal broth microdilution (Example 13); type: cell-based; conditions: C. krusei ATCC 6258, comparators, single value
[2] = test system: Aspergillus spp.; assay: Antifungal broth microdilution (Example 13); type: cell-based, A. niger, A. terreus, A. fumigatus, A. flavus
[3] = test system: fungal pathogens; assay: Antifungal activity, NIH/NIAID sponsored study; type: cell-based; conditions: 100% endpoint
[4] = test system: C. parapsilosis ATCC 22019; assay: Antifungal broth microdilution (Example 13), QC organism; type: cell-based, Candida parapsilosis; conditions: comparators, single value
[5] = test system: Candida krusei; conditions: C. krusei ATCC 6258, CLSI established QC range, cited from earlier work
[6] = test system: Aspergillus spp.; conditions: cited from earlier work
[7] = test system: C. parapsilosis ATCC 22019; conditions: C. parapsilosis ATCC 22019, CLSI established QC range, cited from earlier work
[8] = test system: E. coli ATCC 25922; assay: MIC control strain; conditions: QC organism, Example 13
[9] = test system: S. aureus ATCC 29213; assay: MIC control strain; conditions: QC organism, Example 13
[10] = test system: Enterobacteriaceae; assay: Broth microdilution MIC (Example 11); type: cell-based, E. coli, K. pneumoniae, Enterobacter cloacae
[11] = test system: Escherichia coli; assay: Broth microdilution MIC (Example 12); type: cell-based
[12] = test system: Klebsiella pneumoniae; assay: Broth microdilution MIC (Example 12); type: cell-based
[13] = test system: Pseudomonas aeruginosa; assay: Broth microdilution MIC (Example 12); type: cell-based
[14] = test system: Acinetobacter baumannii; assay: Broth microdilution MIC (Example 12); type: cell-based
[15] = test system: vancomycin-intermediate Staphylococcus aureus (VISA); assay: Broth microdilution MIC (Example 12); type: cell-based
[16] = test system: Enterobacteriaceae; conditions: E. coli (MMX 102), QC; cited from earlier work
[17] = test system: P. aeruginosa and A. baumannii; conditions: P. aeruginosa (MMX 103), QC; cited from earlier work
[18] = test system: Escherichia coli; conditions: E. coli ATCC 25922; CLSI established QC range; cited from earlier work
[19] = test system: Pseudomonas aeruginosa; conditions: P. aeruginosa ATCC 27853; CLSI established QC range; cited from earlier work
[20] = test system: S. aureus ATCC 29213; conditions: CLSI established QC range; cited from earlier work
[21] = test system: S. aureus ATCC 29213; assay: Broth microdilution MIC (Example 12), ATCC QC organism; conditions: ATCC QC organism (Table 102)

Compound: C[C@@H](c1ncncc1F)[C@](O)(Cn1cncn1)c1ccc(F)cc1F [Voriconazole]
- MIC 24 hr ([1]; 24 hr): 0.12 µg/mL (≈ 0.344 µM)
- MIC 48 hr ([1]; 48 hr): 0.5 µg/mL (≈ 1.43 µM)
- MIC 24 hr ([2]; A. flavus ATCC 204304): 0.12 µg/mL (≈ 0.344 µM)
- MIC 48 hr ([2]; A. flavus ATCC 204304): 2 µg/mL (≈ 5.73 µM)
- MIC 24 hr ([2]; A. fumigatus ATCC MYA-3626): 0.25 µg/mL (≈ 0.716 µM)
- MIC 48 hr ([2]; A. fumigatus ATCC MYA-3626): 0.5 µg/mL (≈ 1.43 µM)
- MIC ([3]; Aspergillus fumigatus, read-out: Antifungal activity, MIC 100%, A. fumigatus AF1): 0.5 µg/mL (≈ 1.43 µM)
- MIC ([3]; Aspergillus fumigatus, read-out: Antifungal activity, MIC 100%, A. fumigatus AF2): 4 µg/mL (≈ 11.5 µM)
- MIC ([3]; Aspergillus fumigatus, read-out: Antifungal activity, MIC 100%, A. fumigatus AF3): 8 µg/mL (≈ 22.9 µM)
- MIC ([3]; Blastomyces dermatitidis, read-out: Antifungal activity, MIC 100%, B. dermatitidis BD1): 0.125 µg/mL (≈ 0.358 µM)
- MIC ([3]; Blastomyces dermatitidis, read-out: Antifungal activity, MIC 100%, B. dermatitidis BD2): ≤ 0.03 µg/mL
- MIC ([3]; Blastomyces dermatitidis, read-out: Antifungal activity, MIC 100%, B. dermatitidis BD3): 0.06 µg/mL (≈ 0.172 µM)
- MIC ([3]; Paecilomyces variotii, read-out: Antifungal activity, MIC 100%, P. variotii CLSI QC): 0.125 µg/mL (≈ 0.358 µM)
- MIC 24 hr ([4]; 24 hr): 0.12 µg/mL (≈ 0.344 µM)
- MIC 48 hr ([4]; 48 hr): 0.12 µg/mL (≈ 0.344 µM)
- QC Range 24 hr ([5]; 24 hr): 0.06-0.5
- QC Range 48 hr ([5]; 48 hr): 0.12-1
- QC Range 48 hr ([6]; A. flavus ATCC 204304, CLSI established QC range): 0.5-4
- QC Range 48 hr ([6]; A. fumigatus ATCC MYA-3626, CLSI established QC range): 0.25-1
- QC Range 24 hr ([7]; 24 hr): 0.015-0.12
- QC Range 48 hr ([7]; 48 hr): 0.03-0.25
- MIC 24 hr [8]: >64
- MIC 24 hr [9]: >64

Compound: C[C@H]1COc2c(N3CCN(C)CC3)c(F)cc3c(=O)c(C(=O)O)cn1c23 [LVX]
- MIC ([10]; E. cloacae (MMX 5981), NDM-1, LVX-R, MEM-R, CAZ-R, GEN-R): 64 µg/mL (≈ 177 µM)
- MIC ([10]; E. coli (MMX 102), QC): 0.015 µg/mL (≈ 0.0415 µM)
- MIC ([10]; E. coli (MMX 5980), NDM-1, LVX-R, MEM-R, CAZ-R, GEN-R): 16 µg/mL (≈ 44.3 µM)
- MIC ([10]; E. coli (MMX 8423), ESBL, LVX-R, CAZ-R, GEN-R): 16 µg/mL (≈ 44.3 µM)
- MIC ([10]; E. coli (MMX 8424), ESBL, CAZ-R): 0.06 µg/mL (≈ 0.166 µM)
- MIC ([10]; E. coli (MMX 8425), ESBL, LVX-R, CAZ-R, GEN-R): 16 µg/mL (≈ 44.3 µM)
- MIC ([10]; K. pneumoniae (MMX 4622), KPC-2, MEM-R, CAZ-R): 1 µg/mL (≈ 2.77 µM)
- MIC ([10]; K. pneumoniae (MMX 4623), KPC-2, MEM-R, CAZ-R, GEN-R): 1 µg/mL (≈ 2.77 µM)
- MIC ([10]; K. pneumoniae (MMX 4653), KPC-3, LVX-R, MEM-R, CAZ-R): 64 µg/mL (≈ 177 µM)
- MIC ([10]; K. pneumoniae (MMX 4683), KPC-2, LVX-R, MEM-R, CAZ-R): >64 µg/mL
- MIC ([10]; K. pneumoniae (MMX 4684), ESBL, MEM-R): 0.03 µg/mL (≈ 0.083 µM)
- MIC ([10]; K. pneumoniae (MMX 4685), ESBL, LVX-R, MEM-R, CAZ-R): 32 µg/mL (≈ 88.6 µM)
- MIC ([10]; K. pneumoniae (MMX 4694), KPC-3, LVX-R, MEM-R, CAZ-R): 64 µg/mL (≈ 177 µM)
- MIC ([10]; K. pneumoniae (MMX 5979), NDM-1, LVX-R, MEM-R, CAZ-R, GEN-R): >64 µg/mL
- MIC ([11]; E. coli ATCC 25922, ATCC QC organism (Table 102)): ≤0.008 µg/mL
- MIC ([11]; E. coli ATCC 35218, ATCC QC organism (Table 102)): ≤0.008 µg/mL
- MIC ([11]; E. coli ATCC 35218, ESBL): ≤0.008 µg/mL
- MIC ([11]; E. coli ATCC BAA-2471, NDM): >8 µg/mL
- MIC ([11]; E. coli CDC 114, ESBL/KPC): 4 µg/mL (≈ 11.1 µM)
- MIC ([11]; E. coli CDC 118, ESBL/NDM): 8 µg/mL (≈ 22.1 µM)
- MIC ([11]; E. coli CDC 435, NDM): >8 µg/mL
- MIC ([11]; E. coli CDC 451, KPC): >8 µg/mL
- MIC ([11]; E. coli CDC 503, ESBL/NDM): >8 µg/mL
- MIC ([11]; E. coli MMX 5745, KPC): 8 µg/mL (≈ 22.1 µM)
- MIC ([11]; E. coli MMX 5755, ESBL): 8 µg/mL (≈ 22.1 µM)
- MIC ([11]; E. coli MMX 5756, ESBL): 4 µg/mL (≈ 11.1 µM)
- MIC ([11]; E. coli MMX 5758, ESBL): 8 µg/mL (≈ 22.1 µM)
- MIC ([12]; K. pneumoniae ATCC BAA-1705, ATCC QC organism (Table 102)): >8 µg/mL
- MIC ([12]; K. pneumoniae ATCC BAA-1705, ESBL/KPC): >8 µg/mL
- MIC ([12]; K. pneumoniae CDC 112, KPC): 4 µg/mL (≈ 11.1 µM)
- MIC ([12]; K. pneumoniae CDC 113, ESBL/KPC): 4 µg/mL (≈ 11.1 µM)
- MIC ([12]; K. pneumoniae CDC 115, ESBL/KPC): >8 µg/mL
- MIC ([12]; K. pneumoniae CDC 120, ESBL/KPC): >8 µg/mL
- MIC ([12]; K. pneumoniae CDC 126, ESBL/KPC): 0.015 µg/mL (≈ 0.0415 µM)
- MIC ([12]; K. pneumoniae CDC 129, ESBL/KPC): >8 µg/mL
- MIC ([12]; K. pneumoniae CDC 135, ESBL/VIM): >8 µg/mL
- MIC ([12]; K. pneumoniae CDC 138, ESBL/NDM): >8 µg/mL
- MIC ([12]; K. pneumoniae CDC 158, ESBL/NDM/OXA): 4 µg/mL (≈ 11.1 µM)
- MIC ([12]; K. pneumoniae MMX 9029, ESBL): 0.12 µg/mL (≈ 0.332 µM)
- MIC ([13]; P. aeruginosa ATCC 27853, ATCC QC organism (Table 102)): 0.5 µg/mL (≈ 1.38 µM)
- MIC ([13]; P. aeruginosa CDC 230, VIM/OXA): 8 µg/mL (≈ 22.1 µM)
- MIC ([13]; P. aeruginosa CDC 231, KPC/OXA): >8 µg/mL
- MIC ([13]; P. aeruginosa CDC 241, IMP/OXA): 8 µg/mL (≈ 22.1 µM)
- MIC ([13]; P. aeruginosa CDC 246, NDM/OXA): >8 µg/mL
- MIC ([13]; P. aeruginosa CDC 250, NDM/OXA): >8 µg/mL
- MIC ([13]; P. aeruginosa CDC 356, KPC): 0.12 µg/mL (≈ 0.332 µM)
- MIC ([13]; P. aeruginosa CDC 439, IMP): 8 µg/mL (≈ 22.1 µM)
- MIC ([13]; P. aeruginosa CDC 444, VIM): 8 µg/mL (≈ 22.1 µM)
- MIC ([13]; P. aeruginosa CDC 457, VIM): >8 µg/mL
- MIC ([13]; P. aeruginosa CDC 516, KPC/AmpC): 0.25 µg/mL (≈ 0.692 µM)
- MIC ([13]; P. aeruginosa CDC 518, KPC/AmpC): >8 µg/mL
- MIC ([14]; A. baumannii CDC 273, ESBL/OXA): >8 µg/mL
- MIC ([14]; A. baumannii CDC 274, ESBL/OXA): 8 µg/mL (≈ 22.1 µM)
- MIC ([14]; A. baumannii CDC 275, ESBL/OXA): 4 µg/mL (≈ 11.1 µM)
- MIC ([14]; A. baumannii CDC 277, ESBL/OXA): 8 µg/mL (≈ 22.1 µM)
- MIC ([14]; A. baumannii CDC 284, ESBL/OXA): 8 µg/mL (≈ 22.1 µM)
- MIC ([14]; A. baumannii CDC 307, OXA): 8 µg/mL (≈ 22.1 µM)
- MIC ([14]; A. baumannii CDC 308, ESBL/OXA): 4 µg/mL (≈ 11.1 µM)
- MIC ([14]; A. baumannii CDC 311, OXA): 2 µg/mL (≈ 5.53 µM)
- MIC ([14]; A. baumannii CDC 312, OXA): 2 µg/mL (≈ 5.53 µM)
- MIC ([14]; A. baumannii CDC 313, ESBL/OXA): 2 µg/mL (≈ 5.53 µM)
- MIC ([14]; A. baumannii NCTC 13304, OXA): 1 µg/mL (≈ 2.77 µM)
- MIC ([15]; S. aureus NRS 1 (hVISA)): 4 µg/mL (≈ 11.1 µM)
- MIC ([15]; S. aureus NRS 2): 4 µg/mL (≈ 11.1 µM)
- MIC ([15]; S. aureus NRS 3): >8 µg/mL
- MIC ([15]; S. aureus NRS 4): 4 µg/mL (≈ 11.1 µM)
- MIC ([15]; S. aureus NRS 13): 0.12 µg/mL (≈ 0.332 µM)
- MIC ([15]; S. aureus NRS 18): 4 µg/mL (≈ 11.1 µM)
- MIC ([15]; S. aureus NRS 22): 8 µg/mL (≈ 22.1 µM)
- MIC ([15]; S. aureus NRS 24 (hVISA)): >8 µg/mL
- MIC ([15]; S. aureus NRS 27): 8 µg/mL (≈ 22.1 µM)
- CLSI Quality Control Range (MIC) [16]: (0.008-0.06)^a μg/mL
- CLSI Quality Control Range (MIC) [17]: (0.5-4)^a
- QC range of MIC [18]: (0.008-0.06) μg/mL
- QC range of MIC [19]: (0.5-4) μg/mL
- QC range of MIC [20]: (0.06-0.5) μg/mL
- MIC [21]: 0.06 µg/mL (≈ 0.166 µM)
